Data from patent US9522260B2, “Apparatus for the controlled release of topical nitric oxide” (University of Windsor, priority 2011, dated 2016).

Test: Thermal and storage stability of AuNP nanocomposites and SNOG
Format: physicochemical
Method: All of the AuNP-nanocomposites i) to iv) as well as SNOG solutions 1 mM, dissolved in distilled deionized water and containing 100 μM diethylenetriaminepentaacetic acid (DPTA) a metal chelator were stored at 5° C., 25° C. and 55° C. for 1 month. These components were then added to the testing apparatus 90 (FIG. 3) and their NO-release characteristics were compared to fresh samples.
In one simplest and most cost effective manner to prepare an AuNP-nanocomposite, cotton gauze with AuNP (˜10 nm) is prepared by a conventional citrate reduction method.
SNOG solutions (1 mM) containing DPTA (0.1 mm) decomposed ˜5% upon incubation at 40° C. for 7 days. Stability of the SNOG may be increased further by either suspending it in polyethylene glycol or dissolving it in glycerol.

- decomposition of SNOG solution (SNOG solutions (1 mM) containing DPTA (0.1 mm), incubation at 40° C. for 7 days): ~5%
- thermal stability of solid SNOG (solid, storage at 40° C. for one week, preliminary experiments): thermally stable
SMILES: N[C@@H](CCC(=O)N[C@@H](CSN=O)C(=O)NCC(=O)O)C(=O)O [SNOG, S-nitrosoglutathione]
